Results on five compounds are retold here after patent EP1604970A1, “2-(Biphenyl-3-yl)-carboxylic acids of gamma-secretase-modulating activity” (CELLZOME AG, priority 2004, dated 2005).

The first experiment has as its target T1, cyclooxygenase-1 (Cox-1) (Ovis aries, UniProt P05979).
T1 construct: purchased Cayman Chemical Company 760111
T1 sequence (P05979 25-600): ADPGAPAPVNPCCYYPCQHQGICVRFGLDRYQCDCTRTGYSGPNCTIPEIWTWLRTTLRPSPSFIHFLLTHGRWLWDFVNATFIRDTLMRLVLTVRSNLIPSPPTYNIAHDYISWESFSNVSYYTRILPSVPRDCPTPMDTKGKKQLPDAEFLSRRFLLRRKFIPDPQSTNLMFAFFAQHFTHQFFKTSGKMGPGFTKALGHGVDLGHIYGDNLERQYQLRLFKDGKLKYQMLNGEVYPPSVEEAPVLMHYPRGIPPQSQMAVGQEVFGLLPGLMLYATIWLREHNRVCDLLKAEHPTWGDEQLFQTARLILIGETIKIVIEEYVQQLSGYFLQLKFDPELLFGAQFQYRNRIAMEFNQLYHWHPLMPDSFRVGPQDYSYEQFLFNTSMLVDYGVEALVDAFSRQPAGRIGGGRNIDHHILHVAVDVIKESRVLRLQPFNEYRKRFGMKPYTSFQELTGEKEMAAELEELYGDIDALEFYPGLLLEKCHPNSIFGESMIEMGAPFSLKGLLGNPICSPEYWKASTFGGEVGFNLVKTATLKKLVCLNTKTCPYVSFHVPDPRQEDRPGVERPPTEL
The experiment in a line: Colorimetric Cox inhibitor screening assay (Cayman Chemical, Cat. No. 760111). The class given is biochemical. The following applies: at concentrations of up to 300uM. The procedure:
Inhibition of Cox-1 was determined using the Colorimetric Cox inhibitor screening assay provided by Cayman Chemical Company, Ann Arbor, MI, USA. (Cat. No. 760111) according to manufacturer's instructions. Exemplary studies were carried out using 2-(4'-trifluoromethyl-biphenyl-3-yl)-propionic acid.
As for `CC(C(=O)O)c1cccc(-c2ccc(C(F)(F)F)cc2)c1` (stereo not drawn) [2-(4'-Trifluoromethyl-biphenyl-3-yl)-propionic acid], the “effect on the Cox-1 activity” value is on record as “No significant effect”.

The next experiment has as its system γ-secretase. Briefly: Screening for γ-secretase-modulating activity in SKN neuroblastoma cells carrying the APP "swedish mutation" (assay of Citron et al 1997). The class given is cell-based.
Settings: not given
The procedure: Screening was carried out using SKN neuroblastoma cells carrying the APP-"swedish mutation" (point mutation at 695 of APP) grown in DMEM/NUT-mix F12 (HAM) provided by Gibco (cat no. 31330-38) containing 5% Serum/Fe supplemented with 1% non-essential amino acids, 100 U/ml Pen/Strep. Cells were grown to near confluency. The screening was performed using the assay as described in Citron et al (1997), Nature Medicine. Vol 3: 67-72
The IC50 is the concentration that inhibits the measured activity by half. A low value points to greater potency. In turn, `CC(C(=O)O)c1cccc(-c2ccc(Cl)cc2)c1` (stereo not drawn) [2-(4'-Chloro-biphenyl-3-yl)-propionic acid] yielded an IC50 of 41 µM.

Compound `CC(C(=O)O)c1cccc(-c2ccc(OC(F)(F)F)cc2)c1` (stereo not drawn) [2-(4'-Trifluoromethoxy-biphenyl-3-yl)-propionic acid] registered an IC50 of 75 µM.

On to `CC(C(=O)O)c1cccc(-c2ccc(C(F)(F)F)cc2)c1` (stereo not drawn) [2-(4'-Trifluoromethyl-biphenyl-3-yl)-propionic acid], for which the IC50 turned out to be 24 µM.

`O=C(O)Cc1cccc(-c2ccc(C(F)(F)F)cc2)c1` [(4'-Trifluoromethyl-biphenyl-3-yl)-acetic acid] had a concentration for half-maximal inhibition (IC50) of 84 µM.

On to `C[C@@H](C(=O)O)c1ccc(-c2ccccc2)c(F)c1` [R-Flurbiprofen, reference compound], for which half-maximal inhibition (IC50) was put at 247 µM.
